Measurements published in PubChem BioAssay AID588571 (Sanford-Burnham Center for Chemical Genomics, 2011).
Calls of active or inactive are those of the source.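 How the source made its calls: active means mean IC50 at or below 20 µM; inactive means the rest.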

Test system: CHO-CHOP cells viability, ATPlite luminescence, 6 h
Experiment: cytotoxicity in CHO-CHOP reporter cells, SAR follow-up, cytotoxicity control for UPR adaptive arm activator project, cell-based, 6 h exposure, ATPlite luminescence (AID 588571)

| Compound | IC50 |
| --- | --- |
| O=C(Nc1ccc(Br)c(C(F)(F)F)c1)c1cc(-c2ccncc2)nc2ccccc12 | > 80 µM (inactive) |
| Cc1ccc(NC(=O)c2cc(-c3ccncc3)nc3ccccc23)cc1 | > 80 µM (inactive) |
| O=C(Nc1ccc(Cl)cc1)c1cc(-c2ccncc2)nc2ccccc12 | 75.4 µM (inactive) |
| Cc1nc(Nc2nc(-c3ccccc3)cc(=O)[nH]2)nc2ccccc12 | 60.1 µM (inactive) |
| O=C(Nc1ccc(C(F)(F)F)cc1)c1cc(-c2ccncc2)nc2ccccc12 | 70.4 µM (inactive) |
| Cc1cc(Br)cc(NC(=O)c2cc(-c3ccncc3)nc3ccccc23)c1 | > 80 µM (inactive) |
| O=C(Nc1ccc(F)cc1)c1cc(-c2ccncc2)nc2ccccc12 | > 80 µM (inactive) |
